Measured values taken from patent US8039464B2, “Muscarinic antagonists with PARP and SIR modulating activity as agents for inflammatory diseases” (ProteoSys AG, priority 2004, dated 2011).
Where “and” joins values, the source holds several entries; their conditions need not be identical. Equal values may be shown once. Entries after “also recorded” stand apart in the source; their conditions may differ. Read-outs that look alike come from different tables or passages of the source.

Key:
[1] = Blood-brain-barrier passage: HPLC of plasma and CSF
Source text: J. Gastroenterol. 66, 35ff.; Homon et al., 1987, Therapeutic Drug Monitoring 9, 236ff.).

PARP-1 = target: T1, PARP-1 (Homo sapiens, UniProt P09874); test: PARP inhibition assay (R&D Systems, Cat. No. TA4669); type: biochemical
T1 construct: purchased R&D Systems TA4669
Source text: A PARP inhibition assay from R&D Systems was used (Cat. No. TA4669) according to instructions of the supplier.
Under cellular conditions PARP-1 poly-ADP-ribosylates a host of nuclear proteins, including topoisomerase 1, 14-3-3 g and PARP-1 itself. Thus under cellular conditions, the self-modification of PARP-1 and dimerization are regulating its activity, moreover there is a tight interplay with PARG (poly-ADP-ribosyl-glycohydroxylase).

[2] = system: poly-ADP-ribosylated proteins; test: PARP inhibition under cellular conditions (Western blot of poly-ADP-ribosylated proteins); type: cell-based; conditions: ischemic insult of neural cells by KCN/glucose deprivation; read-out: IC 50 of decrease of poly-ADP-ribosylated proteins
SIR-2 = target: T2, SIR-2 (Mus musculus, UniProt Q923E4); test: SIR2 activity assay (CycLex SIR2 Assay kit); type: biochemical, murine
T2 construct: Using a raw extract from murine embryonic stem cells; host or cells: murine embryonic stem cells (raw extract)
T2 sequence (Q923E4 2-737 limits assumed): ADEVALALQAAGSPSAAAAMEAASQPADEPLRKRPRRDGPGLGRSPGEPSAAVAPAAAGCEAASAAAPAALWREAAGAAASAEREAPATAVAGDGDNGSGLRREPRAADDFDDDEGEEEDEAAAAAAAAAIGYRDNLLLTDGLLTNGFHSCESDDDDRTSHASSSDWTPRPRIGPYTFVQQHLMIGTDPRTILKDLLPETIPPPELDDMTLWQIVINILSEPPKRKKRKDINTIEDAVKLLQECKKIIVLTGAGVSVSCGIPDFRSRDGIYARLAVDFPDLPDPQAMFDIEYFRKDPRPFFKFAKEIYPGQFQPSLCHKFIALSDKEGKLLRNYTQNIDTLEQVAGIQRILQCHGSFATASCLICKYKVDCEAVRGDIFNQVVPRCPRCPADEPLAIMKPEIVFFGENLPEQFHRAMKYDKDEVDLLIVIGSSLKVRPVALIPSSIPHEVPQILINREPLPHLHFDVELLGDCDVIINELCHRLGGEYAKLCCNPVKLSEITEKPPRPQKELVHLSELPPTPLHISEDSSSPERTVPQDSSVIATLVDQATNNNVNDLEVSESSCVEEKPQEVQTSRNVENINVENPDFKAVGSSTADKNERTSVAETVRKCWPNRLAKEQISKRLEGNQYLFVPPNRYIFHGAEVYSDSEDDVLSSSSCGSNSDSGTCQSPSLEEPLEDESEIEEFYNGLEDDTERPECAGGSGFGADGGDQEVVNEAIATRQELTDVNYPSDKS
Source text: For measurements of SIR2 activities, the quantitative test kit for NAD-dependent histone deacetylase activity CycLex® SIR2 Assay kit (Cat# CY-1151) was used according to instructions of manufacturer (CycLex Co., Ltd. 1063-103 Ohara, Tera-Sawaoka Ina, Nagano 396-0002 Japan). All substances tested in the SIR assay were cross-checked for their influence on the lysyl-endopeptidase. For this control an already deacetylated substrate peptide was used in order to measure directly lysyl-endopeptidase activity.
For measurements of SIR2 activities, the quantitative test kit for NAD-dependent histone deacetylase activity CycLex® SIR2 Assay kit (Cat# CY-1151) was used according to instructions of manufacturer (CycLex Co., Ltd. 1063-103 Ohara, Tera-Sawaoka Ina, Nagano 396-0002 Japan).

[3] = system: traumatic brain injury (TBI); test: Controlled Cortical Impact Injury (traumatic brain injury model); type: in vivo
Protocol: The model employed a direct shock to the dura via a burrhole, animals were treated according to the following schemes: Vehicle, LS-75, 8 animals per group starting the study, 2 spare animals; animals were sacrificed 44 h after injury, the endpoints were survival, post injury signs, lesion size by FLB (Fast Luxol Blue) and EMAP (Endothelial, Monocyte, Activating Peptide) staining. The dosing i.p. 100 mg/kg 2 h prior to injury; 40 mg/kg i.p. 2 h after injury; 40 mg/kg i.p. 8 h after injury; 40 mg/kg i.p. 17 h after injury; 40 mg/kg i.p. 25 h after injury; 70 mg/kg i.p. 34 h after injury; Formulation: LS-75 was prepared as a DMSO slurry (not solution) in a mortar and pestle and saline will be added slowly with grinding to reach 4% DMSO final concentration. The suspension is maintained at room temperature and the preparation used for the duration of the study. To vary dose, the volume injected may change. Volume for 100 mg/kg was be 4 mL/kg.

iNOS and Cox-2 = test: Cox-2 and iNOS expression after LPS challenge (Western blot); type: cell-based; conditions: LPS 100 ng/ml for 60 min
Protocol: (§1) Cell pellets were further investigated by Western blot staining with anti Cox-2 and anti iNOS antibodies of 1D polyacrylamide gels.
(§2) Cell survival was assessed by Trypan Blue staining.

[4] = system: D3 embryonic stem (ES) cells, neurons; test: Cell culture model for chemical ischemia and neuroprotection (calcium imaging); type: cell-based, mice; conditions: β-methyl-cyclodextrin or filipin
Protocol: For all experiments, D3 embryonic stem (ES) cells derived from 129/sv mice [Okabe et al., 1996] were cultivated for 12 days, with passages on days 2, 4, 7 and 9 as described previously [Sommer et al., 2004]. Insult conditions: Cells (24-well plates) were pre-incubated with or without 20 nM EPO in fresh medium for 24 hours at 37° C. Cells were rinsed once with low K^+ solution (140 mM NaCl, 4.7 mM KCl, 1.2 mM KH2PO4, 2.5 mM CaCl2, 1.2 mM MgSO4, 11 mM glucose, 15 mM Hepes-NaOH, pH 7.35). Cells (either with or without EPO pre-incubation) were incubated for up to 45 min (37° C.) with either low K^+ solution or with glucose-free low K^+ solution supplemented with 1 mM KCN (chemical ischemia solution [Kume et al., 2002]). Vitality control to asses numbers of surviving neurons was performed by a brief stimulation with a low dose of glutamate (10 μM). Afterwards, cells were washed three times with ice cold phosphate buffered saline (PBS), and then proteins were harvested. Suspended cells were pelleted at 500×G, and lysed into 9M urea 4% CHAPS. The cell lysate was desalted with a NAP-10 column (Amersham Biosciences), preequilibrated with the same buffer, and protein content was determined.
Functional tests by calcium imaging were performed essentially as described [Sommer et al., 2004]. Briefly, cells were loaded with 2 μM of […] in DMEM for 45 min at 37° C. in the dark. Measurements of relative changes in [Ca^2+] were made on an inverted epifluorescence microscope (Olympus IX70 S1F2) with a Polychrom IV Monochromator (Xe-lamp, USHIO). Excitation wavelengths (λ1, λ2) and the emission wavelength were 340, 380 and 510 nm, respectively. Acquisition and analysis of data after appropriate stimulation were performed by using MetaFluor software (Universal Imaging Corporation). Image resolution was 168×129 pixels (binning 8×8, pixel size 6.8×6.8 μm). Only cells identified as neurons by morphological criteria and occasional immunostaining (not shown) and those whose calcium levels returned to the resting state after the first stimulation were taken into account. Controls included nominal zero calcium (negative) and 5 μM ionomycin (positive), 10 μM glutamate (positive) and depolarisation (55 mM K+) (positive). Pharmacological agents were applied by a multi-valve, single-output focal drug application device (ALA Scientific) with the perfusion system DAD-12. […] During each stimulation event 20 image pairs were acquired.

A 549 cells = test: LPS challenge, cell survival by Trypan Blue; type: cell-based; conditions: LPS 100 ng/ml for 60 min
Protocol: as §1, §2

3T3 fibroblasts = test: LPS challenge, cell survival by Trypan Blue; type: cell-based; conditions: LPS 100 ng/ml for 60 min
Protocol: as §1, §2

[5] = system: undifferentiated V56 embryonic stem cells; test: LPS challenge, cell survival by Trypan Blue; type: cell-based; conditions: LPS 100 ng/ml for 60 min
Protocol: as §1, §2

[6] = system: neurally differentiated V56 embryonic stem cells; test: LPS challenge, cell survival by Trypan Blue; type: cell-based; conditions: LPS 100 ng/ml for 60 min
Protocol: as §1, §2

T1 sequence (P09874 whole entry): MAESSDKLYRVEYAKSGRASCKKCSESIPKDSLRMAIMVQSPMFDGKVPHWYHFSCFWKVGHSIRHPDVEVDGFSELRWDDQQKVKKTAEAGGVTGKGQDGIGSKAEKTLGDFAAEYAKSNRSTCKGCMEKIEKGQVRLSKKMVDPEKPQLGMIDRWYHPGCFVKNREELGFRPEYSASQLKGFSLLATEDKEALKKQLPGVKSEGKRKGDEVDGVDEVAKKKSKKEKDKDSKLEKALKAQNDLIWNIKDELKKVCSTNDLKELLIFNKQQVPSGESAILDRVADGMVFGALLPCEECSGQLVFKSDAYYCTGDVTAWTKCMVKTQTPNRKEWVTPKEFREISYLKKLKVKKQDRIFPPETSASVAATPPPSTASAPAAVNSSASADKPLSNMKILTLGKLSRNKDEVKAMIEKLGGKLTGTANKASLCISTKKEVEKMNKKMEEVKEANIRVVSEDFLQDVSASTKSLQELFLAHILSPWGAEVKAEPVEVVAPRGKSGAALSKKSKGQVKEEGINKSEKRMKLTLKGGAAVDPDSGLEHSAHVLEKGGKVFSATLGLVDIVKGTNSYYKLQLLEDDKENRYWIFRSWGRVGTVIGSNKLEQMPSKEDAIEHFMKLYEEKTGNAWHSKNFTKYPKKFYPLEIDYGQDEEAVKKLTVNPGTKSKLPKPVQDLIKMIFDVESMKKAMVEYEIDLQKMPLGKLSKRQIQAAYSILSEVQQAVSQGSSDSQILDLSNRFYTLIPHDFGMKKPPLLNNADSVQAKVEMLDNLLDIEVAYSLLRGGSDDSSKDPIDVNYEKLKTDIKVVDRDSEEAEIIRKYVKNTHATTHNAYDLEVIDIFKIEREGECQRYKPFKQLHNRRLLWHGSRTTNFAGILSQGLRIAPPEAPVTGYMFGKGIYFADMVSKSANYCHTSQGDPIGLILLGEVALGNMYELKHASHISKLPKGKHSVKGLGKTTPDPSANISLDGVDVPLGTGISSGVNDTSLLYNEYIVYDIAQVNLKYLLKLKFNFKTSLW

O=C1Nc2cccnc2Nc2ccccc21 [LS-75, 6H-pyrido[2,3-b][1,4]benzodiazepin-6-one]
passage through the BBB ([1]; LS-75 applied directly): substantial passage | LS-75 levels in CSF ([1]; after Pirenzepine application, after 6 h): substantial increase | Kp ([1]; rat, in vivo, 50 mg/kg): 0.25 to 0.3 | LS-75 in CSF after Mevastatin pretreatment ([1]; rats, Mevastatin 0.15 mg/day for 14 days before oral gavage): far less | higher concentrations in plasma after Mevastatin pretreatment ([1]; rats, Mevastatin 0.15 mg/day for 14 days before oral gavage of 50 mg Pirenzepine and LS-75): about 50% | PARP-1 inhibition (in words) (PARP-1): moderately strong PARP-1 inhibitor | IC50 (PARP-1; IC50 PARP-1 inhibition, R&D assay, recombinant monomeric PARP-1): 18 µM and ~20 µM | IC50 [2]: ~0.3 µM | IC50 (SIR-2): 1000 to 5000 µM | SIR-2 inhibition (in words) (SIR-2): weak SIR 2 inhibitor; also recorded: weak SIR-2 inhibitors | SIR-2 inhibition (in words) (SIR-2; listed as PBD/LS-75): weak inhibitory effect | reduction of secondary lesions ([3]; 44 h after induction of TBI, i.p. dosing, compared to vehicle controls): approx. 50% | reduction of markers for cell damage (fast luxol blue and EMAP) ([3]; contralateral hippocampus, compared to controls): 40-60% | expression of inducible inflammatory markers iNOS and Cox-2 (iNOS and Cox-2): decreased expression | neuroprotective effect under raft-disrupting conditions [4]: does not occur | protection from LPS challenge (A 549 cells): protect | protection from LPS challenge (3T3 fibroblasts): protect | protection from LPS challenge [5]: protect | protection from LPS challenge [6]: protect
